Publication PMC12461739, “Multi-targeted azacoumarin–cyanocinnamate hybrids induce G2/M arrest and apoptosis via tubulin, and COX-2/VEGFR modulation: insights from in vitro mechanistic basis and in vivo validation” (RSC Medicinal Chemistry, 2025)
“And” between values parts separate entries of the source, which are not always exact repeats. Equal entries are not always repeated. Where two headings read alike, the source gives them in different places.

Assays:
[1] = system: MCF-10A cells; assay: MTT cytotoxicity assay, MCF-10A; assay type: cell-based, human
Method: The cytotoxic effects of the synthesized compounds were evaluated using the MTT assay. […] Following incubation, cells were treated with serial dilutions of the test compounds prepared in DMSO. The final concentration of DMSO in all wells, including controls, was maintained below 0.5% v/v to avoid solvent-related cytotoxicity. Doxorubicin was used as a positive control for comparison of antiproliferative activity. Following 48 hours of treatment, the culture medium was gently removed, and each well received 20 μL of MTT reagent (5 mg mL^−1 in phosphate-buffered saline). The plates were incubated at 37 °C for 4 hours to facilitate the enzymatic reduction of MTT into formazan by metabolically active cells. After incubation, the solution was discarded, and 100 μL of dimethyl sulfoxide was added. The absorbance of each well was measured at 570 nm using a microplate spectrophotometer. Cell viability was determined by comparing absorbance values to those of the untreated controls and expressed as a percentage. GraphPad Prism software was used to plot dose–response curves and calculate IC50 values.

[2] = system: MDA-MB 231 cells; assay: MTT antiproliferative assay, MDA-MB 231; assay type: cell-based, human; conditions: Homo sapiens, MDA-MB-231, 48 h, MTT, 48 h treatment; read-out: IC50, antiproliferative activity toward MDA-MB 231
Method: (§1) The cytotoxic effects of the synthesized compounds were evaluated using the MTT assay. MCF-7, MDA-MB 231 (human breast cancer), and MCF-10A (non-tumorigenic breast epithelial) cells were seeded (1–3 × 10^4 cells per well) and incubated for 24 hours at 37 °C in a humidified atmosphere containing 5% CO2.[74] Following incubation, cells were treated with serial dilutions of the test compounds prepared in DMSO. The final concentration of DMSO in all wells, including controls, was maintained below 0.5% v/v to avoid solvent-related cytotoxicity. Doxorubicin was used as a positive control for comparison of antiproliferative activity. Following 48 hours of treatment, the culture medium was gently removed, and each well received 20 μL of MTT reagent (5 mg mL^−1 in phosphate-buffered saline). The plates were incubated at 37 °C for 4 hours to facilitate the enzymatic reduction of MTT into formazan by metabolically active cells. After incubation, the solution was discarded, and 100 μL of dimethyl sulfoxide was added. The absorbance of each well was measured at 570 nm using a microplate spectrophotometer. Cell viability was determined by comparing absorbance values to those of the untreated controls and expressed as a percentage. GraphPad Prism software was used to plot dose–response curves and calculate IC50 values.

[3] = molecular target: T1, COX-2 (Homo sapiens, UniProt P35354); assay: COX-2 inhibitor screening (fluorometric); assay type: biochemical
T1 construct: purchased BioVision K547-100
T1 sequence (P35354 18-604): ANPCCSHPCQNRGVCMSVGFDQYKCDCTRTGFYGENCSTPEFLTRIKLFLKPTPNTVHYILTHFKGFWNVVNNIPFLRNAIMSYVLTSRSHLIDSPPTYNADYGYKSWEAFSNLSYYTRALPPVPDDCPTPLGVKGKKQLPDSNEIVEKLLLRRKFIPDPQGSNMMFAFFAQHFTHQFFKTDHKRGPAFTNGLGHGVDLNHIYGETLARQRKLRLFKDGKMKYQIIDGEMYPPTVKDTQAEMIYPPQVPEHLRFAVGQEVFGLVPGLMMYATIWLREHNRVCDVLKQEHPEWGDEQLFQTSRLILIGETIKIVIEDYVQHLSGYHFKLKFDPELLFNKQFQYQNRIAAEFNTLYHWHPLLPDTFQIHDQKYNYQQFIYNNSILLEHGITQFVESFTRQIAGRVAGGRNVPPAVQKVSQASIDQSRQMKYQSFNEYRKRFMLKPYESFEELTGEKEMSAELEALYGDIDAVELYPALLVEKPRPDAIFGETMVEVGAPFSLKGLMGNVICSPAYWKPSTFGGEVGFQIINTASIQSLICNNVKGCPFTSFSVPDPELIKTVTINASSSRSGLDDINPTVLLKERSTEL
Method: COX-1 and COX-2 enzymes were reconstituted in sterile water (110 μL) and kept on ice until use. Arachidonic acid was activated by mixing 5 μL with 5 μL of NaOH, followed by a 10-fold dilution with water and vortexing. A reaction mixture (80 μL per well) was prepared by combining 76 μL of assay buffer, 1 μL of COX probe, 2 μL of 200-fold diluted COX cofactor, and 1 μL of COX-1 or COX-2 enzyme. This mix was added to each well, followed by 10 μL of the prepared arachidonic acid/NaOH solution to initiate the reaction. Fluorescence was recorded at 25 °C using a microplate reader. The percent inhibition was determined by comparing the fluorescence increase in treated wells relative to the enzyme control. IC50 values were calculated from the concentration–response curves using GraphPad Prism.

[4] = Kidney histopathology (H&E); conditions: compound 7 + EAC
Excerpt: Additionally, liver and kidney tissues were excised from each animal for further evaluation. […] The second portion was fixed in 10% neutral buffered formalin for histopathological examination to assess tissue morphology and damage.[96,97]
Liver and kidney tissues were collected from all experimental groups at the end of the study and immediately fixed in 10% neutral buffered formalin. After fixation, the samples were dehydrated, embedded in paraffin, and sectioned at a thickness of 5 μm using a rotary microtome. […] Histopathological examination of renal tissue focused on identifying acute tubular injury (ATI), characterized by tubular epithelial cell flattening, necrosis, apical vacuolization, and loss of the brush border. These features were assessed using a semi-quantitative scoring system.[110] Hepatic tissue sections were evaluated for the severity of hepatocellular injury using a modified Brunt grading system, which includes assessment of hepatocyte ballooning, necrosis, inflammation, and other degenerative changes.

[5] = system: MCF-7 cells; assay: Cell cycle analysis (PI flow cytometry); assay type: cell-based, human; conditions: MCF-7, 7.653 μM (IC50), 24 h
Method: Cell cycle progression was examined using a propidium iodide (PI)-based staining protocol, adapted from standard manufacturer instructions and previously described methods. MCF-7 cells were seeded at a density of 2 × 10^5 cells per well in DMEM and incubated overnight under standard conditions (37 °C, 5% CO2). […] A DMSO-treated group served as the vehicle control. After treatment, cells were collected, washed twice with cold phosphate-buffered saline (PBS), and centrifuged at 2000 rpm for 5 minutes. The pellets were fixed in pre-chilled 70% ethanol and stored at −20 °C for 2 hours. After fixation, cells were washed again with PBS, centrifuged, and resuspended in PI/RNase staining solution. Samples were incubated for 30 minutes at 37 °C in the dark to allow for RNA degradation and proper DNA staining. Flow cytometric analysis was conducted using a BD FACSCalibur™ system (BD Biosciences, USA). PI fluorescence was detected using a 488 nm excitation laser and collected through the FL2 channel (585 nm bandpass filter). Cell cycle phase distribution (G0/G1, S, and G2/M) was analyzed using dedicated software.

[6] = FRAP (ferric reducing antioxidant power) assay; conditions: 37 °C, 60 min
Method: The resulting Fe^2+ forms a colored complex with the FRAP chromogenic probe, which can be quantitatively measured. The reaction mixture was prepared by combining FRAP assay buffer, FRAP probe, and FeCl3 solution as per the manufacturer's protocol. […] Absorbance was measured at 594 nm using a microplate reader after incubation at 37 °C for 60 minutes. Antioxidant activity was determined by comparing the absorbance of the samples to a standard curve generated using known concentrations of the ferrous standard provided in the kit.

[7] = system: MCF-7 cells; assay: MTT antiproliferative assay, MCF-7; assay type: cell-based, human; conditions: MTT, 48 h treatment, read-out: IC50, antiproliferative activity toward MCF-7
Method: as §1

In the case of `CCOC(=O)/C(C#N)=C/c1ccc(Oc2c(C)c3cc(Br)c(O)c(Br)c3[nH]c2=O)cc1` [Compound 7, ethyl (E)-2-cyano-3-(4-((6,8-dibromo-7-hydroxy-4-methyl-2-oxo-1,2-dihydroquinolin-3-yl)oxy)phenyl)acrylate], the “selectivity index toward breast cancer cells” value ([1]; MCF-10A vs MCF-7 / MDA-MB 231) is reported as 5.3 to 6.8, the IC50 ([1]; MTT, 48 h treatment, non-tumorigenic breast epithelial cells, read-out: IC50, cytotoxicity toward MCF-10A) is reported as 52.1 ± 1.76 µM and the IC50 [2] is reported as 9.7 ± 1.15 µM. For the same molecule, the “selectivity index (SI), COX-1/COX-2” value [3] was 5.93, the IC50 ([3]; read-out: IC50 toward COX-2) was 1.26 µM and 1.3 µM and the nephropathy class [4] was “class II”. The glomerular involvement ([4]; EAC group approximately 25%) was 15%, the “cells in G2/M phase” value ([5]; control 7.57%) was 36.21% and the S-phase cells ([5]; control 21.08%) was 15.75%. For the same molecule, the IC50 [6] was 145 µM, the IC50 ([7]; Homo sapiens, MCF7, 48 h) was 7.65 µM and the IC50 [7] was 7.65 µM and 7.6 µM.
